{"source": "patent US20250257034A1", "about": "“INDOLE DERIVATIVES AS SEROTONERGIC AGENTS USEFUL FOR THE TREATMENT OF DISORDERS RELATED THERETO” (priority 2023, published 2025)", "key": {"[1]": {"test": "Mouse liver microsomes stability", "type": "in vitro ADME", "settings": "mouse liver microsomes"}, "[2]": {"test": "Human liver microsomes stability", "type": "in vitro ADME", "settings": "human liver microsomes", "method_in_brief": "(§1)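 Parent depletion was measured by LC-MS/MS as peak-area ratio to internal standard. Compounds (2 μM) were incubated at 37° C with liver microsomes of each species and 1 mM NADPH, then sampled to 60 min. Intrinsic clearance in μL/min/mg protein derives from the log-linear slope.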"}, "[3]": {"test": "Pharmacokinetic studies in rat (i.v.)", "type": "in vivo", "settings": "dose 1.37 mg/kg (I-71, I-128), 1.33 mg/kg ((S) I-67); for concentration at 0.25 h / concentration at 1 h / AUC(0-t) / half-life: male, Sprague-Dawley, rat, plasma; for concentration at 0.25 h / concentration at 1 h: intravenous; for concentration at 0.25 h / concentration at 1 h / Plasma concentration: rat i.v.; for AUC(0-t) / half-life: iv, rat plasma, i.v.; for half-life: estimated from 2 points only; for Plasma concentration: 4 h", "method": "Animals: Male Sprague-Dawley rats (˜225-350 g) from Charles River Labs were acclimatized for a minimum of 5 days prior to start of study procedures. Body weights were recorded on the day of dosing.\nAny abnormalities were documented including presence/absence of wet dog shakes/back muscle contractions (WDS/BMC).\nDosing: Formulations were administered intravenously (i.v.) via the tail vein using a 25 G needle connected to a 1 cc syringe.\nThe Compounds of Formula (I) were freshly prepared at the appropriate concentrations in 5% Tween-80 in saline.\nBlood collection time (h): 0.25, 1 and 4.\nVolume/time-point: ˜0.25 mL […] (saphenous vein).\nInstrumentation: AB Sciex QTRAP 4000 or 6500 MS/MS system equipped with an LC system with a binary pump, a solvent degasser, a thermostatted column compartment and a multiplate autosampler.\nAnalysis software: Phoenix® WinNonlin® 8.3 (Pharsight, Certara, Mountainview, CA).\nAnalysis methods: non-compartmental analysis, linear up/log down trapezoidal rule.\nPK parameters: t1/2 and AUC0-tlast were be estimated.\nVolume/time-point: ˜0.25 mL (saphenous vein).\nPK parameters: t1/2 and AUC0-tlast were estimated."}, "[4]": {"test": "Rat liver microsomes stability", "type": "in vitro ADME", "settings": "rat liver microsomes", "method_in_brief": "as §1"}, "[5]": {"settings": "male, pooled liver microsomes, 2 μM compound, 0.5 mg/mL"}, "[6]": {"settings": "male, pooled liver microsomes, read-out: Scaled-up CLint"}, "[7]": {"settings": "first individual rat (R01/R04), read-out: Plasma concentration"}, "[8]": {"settings": "mean of 3 rats, read-out: Plasma concentration, Mean ± SD"}, "[9]": {"settings": "second individual rat (R02/R05), read-out: Plasma concentration"}, "[10]": {"settings": "third individual rat (R03/R06), read-out: Plasma concentration"}}, "note": "Like-named read-outs stand apart in the source and are kept apart here."}
{"smiles": "CN(C)CCc1c[nH]c2ccc(OCCOC(F)F)cc12", "note": "[Compound I-128, 2-(5-(2-(Difluoromethoxy)ethoxy)-1H-indol-3-yl)-N,N-dimethylethan-1-amine]", "values": [{"measurement": "microsomal CLint at 2 μM", "setting": "[1]; male, mouse, pooled liver microsomes, 2 μM compound, 0.5 mg/mL, read-out: CLint (μL/min/mg protein)", "result": 66.7, "unit": "µL/min/mg"}, {"measurement": "half-life at 2 μM", "setting": "[1]; [5]", "result": 20.8, "unit": "min"}, {"measurement": "CLint scaled at 2 μM", "setting": "[1]; [6]", "result": 292, "unit": "mL/min/kg"}, {"measurement": "Predicted hepatic CL", "setting": "[1]", "result": 68.78, "unit": "mL/min/kg"}, {"measurement": "Remaining Percentage (%)", "setting": "[1]; With Cofactors, 0 min", "result": 100.00, "unit": "%"}, {"measurement": "Remaining Percentage (%)", "setting": "[1]; With Cofactors, 30 min", "result": 37.09, "unit": "%"}, {"measurement": "Remaining Percentage (%)", "setting": "[1]; With Cofactors, 60 min", "result": 13.52, "unit": "%"}, {"measurement": "Remaining Percentage (%)", "setting": "[1]; Without Cofactors, 0 min", "result": 100.00, "unit": "%"}, {"measurement": "Remaining Percentage (%)", "setting": "[1]; Without Cofactors, 30 min", "result": 89.52, "unit": "%"}, {"measurement": "Remaining Percentage (%)", "setting": "[1]; Without Cofactors, 60 min", "result": 87.90, "unit": "%"}, {"measurement": "Predicted hepatic CL", "setting": "[2]", "result": 16.28, "unit": "mL/min/kg"}, {"measurement": "half-life at 2 μM", "setting": "[2]; 2 μM compound, 0.5 mg/mL", "result": 22.8, "unit": "min"}, {"measurement": "microsomal CLint at 2 μM", "setting": "[2]; 2 μM compound, 0.5 mg/mL, read-out: CLint (μL/min/mg protein)", "result": 60.8, "unit": "µL/min/mg"}, {"measurement": "Remaining Percentage (%)", "setting": "[2]; With Cofactors, 0 min", "result": 100.00, "unit": "%"}, {"measurement": "Remaining Percentage (%)", "setting": "[2]; With Cofactors, 30 min", "result": 41.35, "unit": "%"}, {"measurement": "Remaining Percentage (%)", "setting": "[2]; With Cofactors, 60 min", "result": 16.15, "unit": "%"}, {"measurement": "Remaining Percentage (%)", "setting": "[2]; Without Cofactors, 0 min", "result": 100.00, "unit": "%"}, {"measurement": "Remaining Percentage (%)", "setting": "[2]; Without Cofactors, 30 min", "result": 39.57, "unit": "%"}, {"measurement": "Remaining Percentage (%)", "setting": "[2]; Without Cofactors, 60 min", "result": 16.12, "unit": "%"}, {"measurement": "CLint scaled at 2 μM", "setting": "[2]; read-out: Scaled-up CLint", "result": 76.2, "unit": "mL/min/kg"}, {"measurement": "concentration at 0.25 h", "setting": "[3]; [7]", "result": 146, "unit": "ng/mL"}, {"measurement": "concentration at 0.25 h", "setting": "[3]; [8]", "result": "138 ± 9.07", "unit": "ng/mL"}, {"measurement": "concentration at 0.25 h", "setting": "[3]; [9]", "result": 128, "unit": "ng/mL"}, {"measurement": "concentration at 0.25 h", "setting": "[3]; [10]", "result": 139, "unit": "ng/mL"}, {"measurement": "concentration at 1 h", "setting": "[3]; [7]", "result": 19, "unit": "ng/mL"}, {"measurement": "concentration at 1 h", "setting": "[3]; [8]", "result": "15.2 ± 3.32", "unit": "ng/mL"}, {"measurement": "concentration at 1 h", "setting": "[3]; [9]", "result": 13.1, "unit": "ng/mL"}, {"measurement": "concentration at 1 h", "setting": "[3]; [10]", "result": 13.4, "unit": "ng/mL"}, {"measurement": "AUC(0-t)", "setting": "[3]; first individual rat (R01/R04), read-out: AUC0-tlast", "result": 99, "unit": "ng·h/mL"}, {"measurement": "half-life", "setting": "[3]; first individual rat (R01/R04), read-out: Apparent t1/2 (converted)", "result": 15.3, "unit": "min"}, {"measurement": "AUC(0-t)", "setting": "[3]; mean of 3 rats, read-out: AUC0-tlast, Mean ± SD", "result": "92.5 ± 6.63", "unit": "ng·h/mL"}, {"measurement": "half-life", "setting": "[3]; mean of 3 rats, read-out: Apparent t1/2, Mean ± SD (converted)", "result": "14.1 ± 1.04", "unit": "min"}, {"measurement": "AUC(0-t)", "setting": "[3]; second individual rat (R02/R05), read-out: AUC0-tlast", "result": 85.7, "unit": "ng·h/mL"}, {"measurement": "half-life", "setting": "[3]; second individual rat (R02/R05), read-out: Apparent t1/2 (converted)", "result": 13.7, "unit": "min"}, {"measurement": "AUC(0-t)", "setting": "[3]; third individual rat (R03/R06), read-out: AUC0-tlast", "result": 92.9, "unit": "ng·h/mL"}, {"measurement": "half-life", "setting": "[3]; third individual rat (R03/R06), read-out: Apparent t1/2 (converted)", "result": 13.3, "unit": "min"}, {"measurement": "Plasma concentration", "setting": "[3]; first individual rat (R01/R04)", "result": "No Peak"}, {"measurement": "Plasma concentration", "setting": "[3]; second individual rat (R02/R05)", "result": "No Peak"}, {"measurement": "Plasma concentration", "setting": "[3]; third individual rat (R03/R06)", "result": "No Peak"}, {"measurement": "half-life at 2 μM", "setting": "[4]; [5]", "result": 7.43, "unit": "min"}, {"measurement": "CLint scaled at 2 μM", "setting": "[4]; [6]", "result": 334, "unit": "mL/min/kg"}, {"measurement": "microsomal CLint at 2 μM", "setting": "[4]; male, rat, pooled liver microsomes, 2 μM compound, 0.5 mg/mL, read-out: CLint (μL/min/mg protein)", "result": 187, "unit": "µL/min/mg"}, {"measurement": "Predicted hepatic CL", "setting": "[4]", "result": 47.38, "unit": "mL/min/kg"}, {"measurement": "Remaining Percentage (%)", "setting": "[4]; With Cofactors, 0 min", "result": 100.00, "unit": "%"}, {"measurement": "Remaining Percentage (%)", "setting": "[4]; With Cofactors, 30 min", "result": 6.09, "unit": "%"}, {"measurement": "Remaining Percentage (%)", "setting": "[4]; With Cofactors, 60 min", "result": 0.56, "unit": "%"}, {"measurement": "Remaining Percentage (%)", "setting": "[4]; Without Cofactors, 0 min", "result": 100.00, "unit": "%"}, {"measurement": "Remaining Percentage (%)", "setting": "[4]; Without Cofactors, 30 min", "result": 70.92, "unit": "%"}, {"measurement": "Remaining Percentage (%)", "setting": "[4]; Without Cofactors, 60 min", "result": 52.18, "unit": "%"}]}
